What was measured:
rabbit sclera = assay: Depth of penetration into the rabbit sclera (fluorescence microscopy); assay type: in vitro ADME; details: ex vivo using eye cap and in-situ using Merocel sponge
Experimental: Test compound solution was applied in the supero-temporal or infero-nasal (alternating) quadrant of the rabbit by a curved plastic or metal glide with attached Merocel® sponge connected by a tube that ran along the glide outside. The glide was inserted through a conjunctival opening at the limbus (see FIGS. 17A-17B). After placing the glide attached to the sclera, the tube was connected to a syringe or pump, and the test compound reservoir was injected to impregnate the sclera. Application of the photosensitizer was continued for 10 or 30 minutes. Afterwards, the glide with the Merocel® was withdrawn.
The treated scleral area and the opposing control sclera were trephined with a round skin trephine of 8-mm diameter and scissors and immediately frozen. Sagittal slices of 20 microns were dissected with a cryomicrotome at the central area of the scleral button. The fluorescence intensity at 755 nm was recorded upon excitation at 740 nm using a fluorescence microscope (Olympus, Japan).

[1] = system: de-epithelialized rabbit cornea; assay: Depth of penetration into the rabbit cornea, ex vivo (fluorescence microscopy of sagittal slices); assay type: in vitro ADME
Experimental: Eyes of rabbits were enucleated and deepithelialised mechanically post mortem. The eyes were exposed to Bchl-S solution using an eye cap for 5, 10, and 30 minutes and to Bchl-D solution for 10 and 30 min, in darkness. Controls: untreated eyes, and one eye treated with dextran-500 only for 30 min in darkness. Following this pretreatment, the corneas were briefly rinsed with saline and the central 8-mm buttons were trephined, removed, wrapped in aluminum foil and frozen on dry ice until further use. Central serial corneal sagittal slices (12 μm) were cut with a cryomicrotome, mounted on a microscope glass slide and stored frozen in −70° C. until use. For measurement of fluorescence, the individual slices were placed on the microscope base and a photographic record was immediately taken. Fluorescence intensity of Bchl-S or Bchl-D treated corneas from 3 serial cryo sections was recorded at 760 nm, upon excitation at 740 nm, using a fluorescence microscope (BX61 Olympus, Japan) equipped with CCD camera (Cascade 512B, Roper Sci., USA) and a long pass filter of above 760 nm. The digital data was analyzed, using ImageJ software (NIH, USA).
The penetration depth of the photosensitizer determines the extent of cornea's tissue exposure to the photodynamic effect. In particular, the deeper the penetration, the higher is the probability for endothelial impairment. To resolve the penetration depth of test compounds following different times of incubation, the digitized fluorescence of dissected corneal discs was monitored using fluorescence microscopy as described in Materials and Methods.
The penetration depth of WST11 into the de-epithelialized cornea, following various incubation times, was performed in the darkness in the absence or presence of dextran, using saline or dextran solutions of WST11 (WST11-S or WST11-D solutions, respectively) in 20 eyes of euthanized rabbits. Sagittal frozen sections mounted on glass slides were subjected to fluorescence microscopy. The distribution of WST11 across the cornea was recorded photographically by fluorescence microscopy (excitation/emission 740/760 nm). The controls were 4 untreated eyes and 1 eye treated only with dextran-T 500 for 30 minutes.

rabbit cornea = assay: Stress-strain measurements of ex-vivo treated corneas; details: for Mean Young's Modulus Intensity / Mean ultimate stress Intensity: 30 min incubation then 30 min illumination (NIR for WST11, UVA for RF-D); for Mean Young's Modulus Intensity / Mean ultimate stress Intensity / Mean Young's Modulus Increase % / Mean ultimate stress Increase %: dipotassium salt; for Mean Young's Modulus Increase % / Mean ultimate stress Increase %: 30 min incubation, 30 min NIR, vs untreated fellow eyes
Experimental: Eyes of rabbits (15-16 weeks old, weighting 3-4 Kg) were enucleated post mortem. Before enucleation, the 12 and 6 h position were marked on the sclera for preservation of subsequent cutting orientation. The corneas were de-epithelialized mechanically using a PKR scraper (Becton Dickenson, USA). Usually, about 10 rabbits were assigned to bacteriochlorophyll/NIR treatment, herein the “test group” (for example WST11/NIR), and 2 rabbits were treated by RF/UVA (herein the “RF/UVA group”) for comparison. In the test group, 10 eyes of 10 rabbits were immersed upside down for 30 minutes in test compound saline solution (Bchl-S) followed by NIR illumination (600-900 nm) with a diode laser at 10 mW/cm^2 for 30 minutes. The untreated contralateral eyes served as controls. In the RF/UVA group, RF-D solution was topically applied on 2 eyes of 2 rabbits, every 10 minutes, for 30 minutes, followed by UVA irradiation at 370 nm by a double diode at 3 mW/cm^2, for 30 minutes. After treatment, the corneo-scleral rings were removed and placed on paraffin hemisphere buttons with a matching shape to establish accurate sectioning without tissue stretching. […] The strips included 2 mm of sclera on both ends. Central corneal thickness was measured by ultrasonic pachymetry (Humphrey ultrasonic pachymeter, USA). The corneal strips were then transferred to the biomechanical tester.
The corneal and scleral strips were clamped horizontally, at a distance of 6 mm, between the jaws of a microcomputer-controlled biomaterial tester (Minimat, Germany) with a 200 Newton force cell (FIG. 1). Controlled tightening of screws was performed with a calibrated screwdriver at a preset torque of 9 cN.m (Torqueleader, England). The strain was increased linearly at a rate of 1.0 mm/min and was measured up to tissue rupture. Young's modulus was calculated by the testing machine. Ultimate stress and Young's modulus were expressed in Mega Pascal (MPa) units.
Stress-strain measurements were conducted in 12 rabbits as described in Materials and Methods. Briefly, 10 eyes of 10 rabbits were treated by WST11/NIR, and 2 eyes of 2 rabbits were treated by RF-D/UVA. The contralateral eyes served as control.

[2] = system: de-epithelialized rabbit cornea; assay: Overall accumulation of photosensitizer by the rabbit cornea (optical absorption at 755 nm); assay type: in vitro ADME; details: exposure to saline solution for 10, 20 and 30 min; increased with time
Experimental: Eyes of rabbits were de-epithelialised mechanically immediately post mortem. For most studies, 6 rabbits were used, wherein 6 eyes of 6 rabbits were exposed to the bacteriochlorophyll test compound for 10, 20 and 30 minutes (2 eyes for each test) using an eye cap, while the contralateral eyes were left untreated and served as controls. The corneas were removed and the central buttons of 8-mm diameter were punched out with a round trephine and placed onto the outer side of a polymethylmethacrylate cuvette in the area of light beam passage. Absorption spectra were recorded, and optical density (OD) at 600-900 nm (in most cases at 755 nm) was measured using V-570 spectrophotometer (Jam), Japan).
Six eyes of 3 euthanized rabbits were de-epithelialized mechanically immediately post mortem. Five of these eyes were exposed to WST11 in saline (WST11-S solution) for 10, 20 and 30 min, using an eye cap, and the optical absorption at 755 nm of the washed corneas was determined as described in Materials and Methods. One eye served as untreated control.

- penetration into sclera (rabbit sclera): penetrated into sclera tissue
- stromal thickness after exposure ([1]; 30 min exposure to saline solution, from 360-380 μm): 600-730 μm
- penetration depth into corneal stroma ([1]; in saline, no dextran, 10 min exposure, dipotassium salt): half of the corneal stroma
- penetration depth into corneal stroma ([1]; in saline, no dextran, 10 min exposure, listed as WST11-S, dipotassium salt): entire outer half of the stroma
- penetration depth into corneal stroma ([1]; in saline, no dextran, 30 min exposure, dipotassium salt): entire stroma depth
- penetration depth into corneal stroma ([1]; in saline, no dextran, 30 min exposure, listed as WST11-S, dipotassium salt): all the way to Descemet's membrane
- penetration depth into corneal stroma ([1]; with dextran-500, 10 min incubation): outer ⅓ of the corneal stroma
- penetration depth into corneal stroma ([1]; with dextran-500, 30 min incubation): 50%
SMILES: CCC1C2=Cc3c(C)c(C(=O)NCCS(=O)(=O)[O-])c4[n]3[Pd][n]3c(c(C)c(C(C)=O)c3=CC(=N2)C1C)=CC1=NC(=C4CC(=O)OC)C(CCC(=O)[O-])C1C.[K+].[K+] (stereo not drawn) [WST11, Palladium 3^1-oxo-15-methoxycarbonylmethyl-rhodobacteriochlorin 13^1-(2-sulfoethyl)amide dipotassium salt]
- Mean Young's Modulus Intensity (rabbit cornea): 17.65 ± 8.25 MPa
- Mean ultimate stress Intensity (rabbit cornea): 5.98 ± 2.11 MPa
- Mean Young's Modulus Intensity (rabbit cornea; listed as WST11-S): 17.65 MPa
- Mean ultimate stress Intensity (rabbit cornea; listed as WST11-S): 5.98 MPa
- Mean Young's Modulus Increase % (rabbit cornea): 410%
- Mean ultimate stress Increase % (rabbit cornea): 286%
- Mean Young's Modulus Increase % (rabbit cornea; listed as WST11-S): 369%
- Mean ultimate stress Increase % (rabbit cornea; listed as WST11-S): 267%
- increase in the corneal stiffness (rabbit cornea; 30 min pre-incubation then NIR, vs untreated control eyes): ~3 fold
- optical density of the impregnated corneas at 755 nm [2]: ≤ 1.71 OD units
